How the values were obtained:
S. aureus (ATCC#25923) = test: Survival of bacteria under cycled high/low NO gas exposure (FIG. 6); format: cell-based; conditions: 160 ppm NO gas 30 minutes then 20 ppm 3.5 hours, cycled every 4 hours for 24 hours; compared to air
Procedure: (§1) The effectiveness of the intermittent high dose delivery of nitric oxide gas in combating microorganisms was tested and verified. Briefly, the experimental methods were as follows. Inoculums of varying bacteria was prepared to a suspension of 2.5×10^8 cfu/ml, and diluted 1:1000 in sterile normal saline. Three milliliters of the inoculums were used per well in a sterile culture place. Exposure of the inoculums were performed in an exposure chamber, which has been described for example, in Ghafarri, A. et al., “A direct nitric oxide gas delivery system for bacterial and mammalian cell cultures,” Nitric Oxide. 12(3):129-40 (May 2005), which is hereby incorporated by reference as if fully set forth herein. The inoculums were exposed to 160 ppm of NO gas at a flow rate of 2.5 liters per minute for 30 minutes followed by exposure to 20 ppm of NO gas for 3.5 hours. The exposure to high and low concentrations of NO gas was repeatedly cycled every 4 hours for 24 hours. At various times (e.g., 0, 4, 8, and 12 hours), samples were taken and plated to determine the survivability of the bacteria as determined by counting cfu/ml.
(§2) FIGS. 6-9 show the survival of various bacteria used in the experiment with NO gas compared to exposure to air as control.

E. coli = test: Survival of bacteria under cycled high/low NO gas exposure (FIG. 9); format: cell-based; conditions: 160 ppm NO gas 30 minutes then 20 ppm 3.5 hours, cycled every 4 hours for 24 hours; compared to air
Procedure: as §1, §2

[1] = test system: mycothiol in wild type M. smegmatis; test: Mycothiol level by HPLC after NO gas exposure (FIG. 11); format: cell-based, Mycobacterium smegmatis; conditions: 400 ppm NO gas, compared to exposure to air
Procedure: Further experiments were conducted to assay and measure the mycothiol level using HPLC in wild type M. smegmatis after exposure to 400 ppm NO gas and were compared to mycothiol level after exposure to air.

[2] = test system: P. aeruginosa (ATCC#27853); test: Survival of bacteria under cycled high/low NO gas exposure (FIG. 7); format: cell-based; conditions: 160 ppm NO gas 30 minutes then 20 ppm 3.5 hours, cycled every 4 hours for 24 hours; compared to air
Procedure: as §1, §2

[3] = test system: mycothiol-deficient Mycobacterium smegmatis Mutant MshA; test: Survival of mycothiol-deficient mutant versus wild type on exposure to NO gas (FIG. 10); format: cell-based; conditions: 200 ppm NO gas; wild type counterpart mc^2 155
Procedure: (§3) Additional studies were performed to test the hypothesis that the effect of NO gas in killing microorganisms is related to thiol function. […] This may be due to Mycobacteria having an exceptional thiol, mycothiol, that maintains the redox balance in the cell and protects the cell from nitrosative and oxidative stress. In order to test this hypothesis, sensitivities to NO gas was compared between mycothiol-deficient Mycobacterium smegmatis Mutant MshA to its wild type counterpart, mc^2 155 by exposing both strains to 200 ppm of NO gas. MshA is an enzyme needed in mycothiol biosynthesis.

[4] = test system: P. aeruginosa (clinical strain from Cystic Fibrosis); test: Survival of bacteria under cycled high/low NO gas exposure (FIG. 8); format: cell-based; conditions: 160 ppm NO gas 30 minutes then 20 ppm 3.5 hours, cycled every 4 hours for 24 hours; compared to air
Procedure: as §1, §2

Mycobacteria = test: Sensitivity of various microorganisms to NO gas damage; format: cell-based; conditions: compared with various other microorganisms
Procedure: as §3

For [N]=O [NO gas, nitric oxide], the “survival of S. aureus (cfu/ml)” value (S. aureus (ATCC#25923)) was “effective method of killing the bacteria”, the “survival of E. coli (cfu/ml)” value (E. coli) was “effective method of killing the bacteria” and the “level of mycothiol in the mycobacterium” value [1] was “reduced compared to exposure to air”. For the same compound, the “survival of P. aeruginosa ATCC#27853 (cfu/ml)” value [2] was “effective method of killing the bacteria”, the “sensitivity of MshA mutant to NO gas versus wild type” value [3] was “more sensitive” and the “time to kill MshA mutant versus wild type” value [3] was “killed in less time than its wild type counterpart”. For the same compound, the “survival of P. aeruginosa clinical strain from Cystic Fibrosis (cfu/ml)” value [4] was “effective method of killing the bacteria” and the “sensitivity of Mycobacteria to NO gas damage” value (Mycobacteria) was “less sensitive”.

Reference: patent US7955294B2, “Intermittent dosing of nitric oxide gas” (Sensormedics Corporation, priority 2004, dated 2011)
